Measurements: ChEMBL document CHEMBL3988442, “University of Dundee, Small-Polar-MMV Screening Library” (2021)
Where “and” joins values, the source holds several entries; their conditions need not be identical. Equal entries are not always repeated.

Assays:
[1] = target: Lysine--tRNA ligase (Plasmodium falciparum (isolate 3D7), UniProt Q8IDJ8); assay: Pf-KRS-1 (Lysyl-RNA Synthetase-1, KRS-1, cytosolic KRS) from Plasmodium falciparum. Inhibitor assay, 384 well plate, luminescence read.; type: functional
Chain of Lysine--tRNA ligase (Q8IDJ8 whole entry): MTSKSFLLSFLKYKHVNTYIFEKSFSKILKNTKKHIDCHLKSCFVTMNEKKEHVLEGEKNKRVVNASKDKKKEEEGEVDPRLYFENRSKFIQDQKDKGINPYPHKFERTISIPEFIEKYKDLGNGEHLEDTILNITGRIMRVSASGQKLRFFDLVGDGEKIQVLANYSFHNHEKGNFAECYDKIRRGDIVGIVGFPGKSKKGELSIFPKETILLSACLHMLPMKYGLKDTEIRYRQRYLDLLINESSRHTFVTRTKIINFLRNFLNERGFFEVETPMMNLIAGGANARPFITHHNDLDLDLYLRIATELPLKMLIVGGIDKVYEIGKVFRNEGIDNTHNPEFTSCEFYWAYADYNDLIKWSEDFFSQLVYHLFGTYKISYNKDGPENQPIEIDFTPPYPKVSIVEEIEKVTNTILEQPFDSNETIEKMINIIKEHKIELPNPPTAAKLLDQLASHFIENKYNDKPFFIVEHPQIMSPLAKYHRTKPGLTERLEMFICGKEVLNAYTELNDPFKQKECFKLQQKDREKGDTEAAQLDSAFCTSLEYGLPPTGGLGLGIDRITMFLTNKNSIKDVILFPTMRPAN

[2] = microbe, parasite or virus in culture; details: Mycobacterium tuberculosis, 72 h, read-out: pIC50 (converted)
[3] = microbe, parasite or virus in culture; details: Mycobacterium tuberculosis, 96 h, read-out: pIC50 (converted)
[4] = target: ClpP1P2 (Mycobacterium tuberculosis (strain ATCC 25618 / H37Rv), UniProt P9WPC3+P9WPC5); assay: in vitro assay to detect presence of AMC directly proportional to the activity of ClpP1P2. GHDDI collaboration.; type: functional
Chain of ClpP1P2 (P9WPC5 whole entry): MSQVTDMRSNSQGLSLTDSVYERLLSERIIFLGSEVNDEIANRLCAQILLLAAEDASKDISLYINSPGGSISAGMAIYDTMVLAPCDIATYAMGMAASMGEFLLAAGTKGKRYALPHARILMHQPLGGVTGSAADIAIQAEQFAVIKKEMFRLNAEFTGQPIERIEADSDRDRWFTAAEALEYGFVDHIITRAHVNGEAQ
Chain of ClpP1P2 (P9WPC3 whole entry): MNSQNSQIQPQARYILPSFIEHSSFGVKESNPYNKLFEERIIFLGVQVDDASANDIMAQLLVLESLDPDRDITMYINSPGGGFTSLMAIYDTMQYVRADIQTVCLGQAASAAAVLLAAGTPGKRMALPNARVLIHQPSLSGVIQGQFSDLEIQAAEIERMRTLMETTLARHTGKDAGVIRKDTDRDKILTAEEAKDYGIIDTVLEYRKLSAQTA

[5] = target: T1, Histidine--tRNA ligase (Leishmania infantum, UniProt A4I591); assay: Leishmania infantum Histidine tRNA synthetase (LdHisRS); type: functional
T1 sequence (A4I591 whole entry): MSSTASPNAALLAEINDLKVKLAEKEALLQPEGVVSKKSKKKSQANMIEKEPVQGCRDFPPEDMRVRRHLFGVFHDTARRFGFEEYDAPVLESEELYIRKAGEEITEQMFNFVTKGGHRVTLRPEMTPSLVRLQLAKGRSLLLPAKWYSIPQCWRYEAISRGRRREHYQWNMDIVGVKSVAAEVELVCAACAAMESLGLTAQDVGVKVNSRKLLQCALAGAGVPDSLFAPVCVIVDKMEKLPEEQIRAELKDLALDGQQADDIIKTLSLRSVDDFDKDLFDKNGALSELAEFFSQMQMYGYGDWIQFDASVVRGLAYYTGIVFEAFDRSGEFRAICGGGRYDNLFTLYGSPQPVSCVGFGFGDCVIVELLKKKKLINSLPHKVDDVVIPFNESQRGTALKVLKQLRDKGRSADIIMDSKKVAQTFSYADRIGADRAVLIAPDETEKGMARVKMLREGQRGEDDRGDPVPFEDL

[6] = target: T2, Coenzyme A biosynthesis bifunctional protein CoaBC (Mycobacterium tuberculosis (strain ATCC 25618 / H37Rv), UniProt P9WNZ1); assay: Biomol Green assay for MtCoaBC inhibitor, OD650 read; type: functional
T2 sequence (P9WNZ1 whole entry): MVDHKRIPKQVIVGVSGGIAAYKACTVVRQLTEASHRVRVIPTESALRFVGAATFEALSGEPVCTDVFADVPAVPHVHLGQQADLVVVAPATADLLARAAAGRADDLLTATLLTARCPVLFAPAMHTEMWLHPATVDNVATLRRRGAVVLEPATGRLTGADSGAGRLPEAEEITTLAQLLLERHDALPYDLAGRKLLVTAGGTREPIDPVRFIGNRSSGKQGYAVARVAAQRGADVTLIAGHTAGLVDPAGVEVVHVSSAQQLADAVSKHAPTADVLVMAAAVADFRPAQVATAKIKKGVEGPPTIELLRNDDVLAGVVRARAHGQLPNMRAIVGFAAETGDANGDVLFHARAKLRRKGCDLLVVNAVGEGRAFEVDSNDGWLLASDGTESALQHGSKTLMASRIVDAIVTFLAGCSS

[7] = system: Leishmania donovani; assay: Leishmania intramacrophage assay; type: functional, organism-based; details: Leishmania donovani
[8] = target: Polyketide synthase Pks13 (Mycobacterium tuberculosis (strain ATCC 25618 / H37Rv), UniProt I6X8D2); assay: Mycobacterium tuberculosis Polyketide synthase 13 Thioesterase (PKS13); type: functional
Chain of Polyketide synthase Pks13 (I6X8D2 whole entry): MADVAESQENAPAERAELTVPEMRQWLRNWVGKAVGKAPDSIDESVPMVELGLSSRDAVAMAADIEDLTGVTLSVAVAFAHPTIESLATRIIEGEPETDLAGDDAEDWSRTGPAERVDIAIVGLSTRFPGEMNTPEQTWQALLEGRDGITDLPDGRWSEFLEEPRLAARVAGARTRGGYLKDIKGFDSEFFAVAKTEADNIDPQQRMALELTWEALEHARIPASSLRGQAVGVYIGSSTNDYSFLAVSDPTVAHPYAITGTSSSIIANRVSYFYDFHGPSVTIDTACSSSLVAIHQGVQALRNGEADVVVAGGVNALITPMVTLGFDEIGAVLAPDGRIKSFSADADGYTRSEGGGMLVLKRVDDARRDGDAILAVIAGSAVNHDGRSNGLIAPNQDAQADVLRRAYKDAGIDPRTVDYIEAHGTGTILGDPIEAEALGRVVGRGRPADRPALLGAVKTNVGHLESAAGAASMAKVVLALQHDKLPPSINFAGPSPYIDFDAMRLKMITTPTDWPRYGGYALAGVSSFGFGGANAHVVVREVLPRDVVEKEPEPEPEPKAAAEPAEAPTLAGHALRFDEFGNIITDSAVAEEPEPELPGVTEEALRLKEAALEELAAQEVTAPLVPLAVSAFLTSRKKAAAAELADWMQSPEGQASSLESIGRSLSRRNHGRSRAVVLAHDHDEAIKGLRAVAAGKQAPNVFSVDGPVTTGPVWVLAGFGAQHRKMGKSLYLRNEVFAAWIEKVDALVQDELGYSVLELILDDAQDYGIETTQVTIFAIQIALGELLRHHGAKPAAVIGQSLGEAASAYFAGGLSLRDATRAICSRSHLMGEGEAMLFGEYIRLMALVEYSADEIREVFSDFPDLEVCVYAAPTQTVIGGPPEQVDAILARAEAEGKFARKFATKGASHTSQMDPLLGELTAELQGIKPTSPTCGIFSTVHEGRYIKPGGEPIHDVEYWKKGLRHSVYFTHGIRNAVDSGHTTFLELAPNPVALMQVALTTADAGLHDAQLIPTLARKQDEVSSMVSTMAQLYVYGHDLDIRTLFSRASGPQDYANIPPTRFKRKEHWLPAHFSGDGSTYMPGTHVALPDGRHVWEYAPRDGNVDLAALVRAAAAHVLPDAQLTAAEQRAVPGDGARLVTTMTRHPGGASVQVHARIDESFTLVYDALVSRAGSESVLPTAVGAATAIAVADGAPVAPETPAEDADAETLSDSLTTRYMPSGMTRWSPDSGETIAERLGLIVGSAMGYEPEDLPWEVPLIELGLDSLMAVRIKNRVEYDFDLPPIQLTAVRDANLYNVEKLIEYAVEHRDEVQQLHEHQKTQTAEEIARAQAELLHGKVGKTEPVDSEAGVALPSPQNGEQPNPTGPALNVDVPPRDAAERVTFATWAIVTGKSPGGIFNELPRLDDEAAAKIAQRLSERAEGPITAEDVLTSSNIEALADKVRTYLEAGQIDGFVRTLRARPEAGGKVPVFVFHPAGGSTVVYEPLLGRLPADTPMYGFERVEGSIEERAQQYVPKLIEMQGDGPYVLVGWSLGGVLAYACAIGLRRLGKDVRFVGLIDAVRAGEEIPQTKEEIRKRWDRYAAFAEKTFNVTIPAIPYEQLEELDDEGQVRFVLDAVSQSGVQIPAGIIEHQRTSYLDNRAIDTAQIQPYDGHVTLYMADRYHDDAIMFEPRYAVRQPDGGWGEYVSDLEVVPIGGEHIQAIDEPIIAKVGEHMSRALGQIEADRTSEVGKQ

[9] = system: Plasmodium falciparum; assay: Calibr Malaria Delayed Death Assay SOP; type: functional, organism-based

Structure (SMILES)	IC50 [1] [µM]	other results
Cc1nc(CN2CCCC(CCc3cccc(C(F)(F)F)c3)C2)co1 (centres undefined)	> 50.1	IC50 [2]: 33.3 µM; IC50 [3]: 41.8 µM
CCC(Cn1ccc2[nH]c(=O)c(C#N)cc2c1=O)OC (centres undefined)	> 50.1	IC50 [4]: > 100 µM
CC(O)CCn1ccc2[nH]c(=O)c(C#N)cc2c1=O (centres undefined)	> 50.1	IC50 [4]: > 100 µM
Nc1nc(CC(=O)N2CCCC(CCc3cccc(F)c3)C2)cc(=O)[nH]1 (centres undefined)	> 50.1	IC50 [5]: 13.8 µM and 10 µM
CCn1cc(CNc2ccc3nccnc3c2)cn1	> 50.1	IC50 [5]: 9.36 µM and 8.25 µM
CCCOCC1CCN(C(=O)Cn2cccc(OC)c2=O)C1 (centres undefined)	> 50.1	IC50 [5]: 2.01 µM and 1.03 µM and 2.08 µM and 1.01 µM
CCOCC1CCN(C(=O)C(c2ccccc2F)N(C)C)CC1 (centres undefined)	> 50.1	IC50 [2]: > 50.1 µM; IC50 [3]: > 50.1 µM; IC50 [6]: > 30.2 µM
N#Cc1cc2c(=O)n(CC(O)C(F)(F)F)ccc2[nH]c1=O (centres undefined)	> 50.1	IC50 [4]: > 100 µM
COc1ncc(-c2c(C#N)c(N)nc3c2CCc2[nH]ccc2-3)cn1	> 50.1	IC50 [5]: 8.08 µM and 5.62 µM
COc1c(C)cnc(CN(C)C(=O)c2ccccc2F)c1C	> 50.1	–
CC(NC(=O)NCCOc1ccc(Cl)cc1)c1nncn1C (centres undefined)	> 50.1	–
O=C(CCNC(=O)c1ccoc1)Nc1cccc(F)c1	> 50.1	–
O=C(CCNC(=O)c1ccoc1)Nc1cc(F)ccc1F	> 50.1	–
O=C(CCNC(=O)c1ccoc1)Nc1cc(F)cc(F)c1	> 50.1	–
COc1ccc(NC(=O)N2CCCC2c2ccncc2)cn1 (centres undefined)	> 50.1	–
COc1ccc(C2CCCN2C(=O)Nc2ccc(OC)nc2)cc1 (centres undefined)	> 50.1	–
Cn1cnnc1C1CCCN(C(=O)c2ccc3c(c2)OCCO3)C1 (centres undefined)	> 50.1	–
COCCOc1ccc(NC(=O)N2CCCC2c2ccsc2)cn1 (centres undefined)	> 50.1	–
COc1ccc(CC(=O)N2CCCC(c3nncn3C)C2)cc1 (centres undefined)	> 50.1	–
COCCOc1ccccc1C(=O)N(C)Cc1ncc(C)c(OC)c1C	> 50.1	–

Structure (SMILES)	IC50 [1] [µM]	other results
COCCOc1ccc(NC(=O)N2CCCC2c2cccs2)cn1 (centres undefined)	> 50.1	–
COc1c(C)cnc(CN(C)C(=O)c2ccccc2O)c1C	> 50.1	–
CC(NC(=O)NCCCOc1ccccc1F)c1nncn1C (centres undefined)	> 50.1	–
N#Cc1cccc(CN2CCN(Cc3cscn3)CC2)c1	> 50.1	–
Cc1cccc(OCCCNC(=O)NC(C)c2nncn2C)c1 (centres undefined)	> 50.1	–
Fc1cccc(CN2CCN(Cc3cscn3)CC2)c1	> 50.1	–
COc1cccc(C(=O)N(C)Cc2ncc(C)c(OC)c2C)c1OC	> 50.1	–
Cc1nc(NC(=O)CN2CCOC(Cn3cccn3)C2)sc1C (centres undefined)	> 50.1	–
Cc1nnc(NC(=O)CN2CCOC(Cn3cccn3)C2)s1 (centres undefined)	> 50.1	–
Cc1nn(C)c(C)c1NC(=O)CN1CCOC(Cn2cccn2)C1 (centres undefined)	> 50.1	–
Cc1ccc(S(=O)(=O)Nc2ccc(=O)n(C)c2)cc1	> 50.1	IC50 [5]: 24.8 µM and 32.1 µM; IC50 [7]: > 50.1 µM
CC(C)Cc1ccc(S(=O)(=O)Nc2ccc(=O)n(C)c2)cc1	> 50.1	IC50 [5]: 12.5 µM and 18.7 µM
COCCCN1CCc2cncnc2C1	> 50.1	IC50 [5]: 29.5 µM and 38.3 µM
Cc1cccc(-c2noc(CN3CCc4nn(C)c(=O)cc4C3)n2)c1	> 50.1	IC50 [5]: 9.38 µM and 11.6 µM
CCCn1nc2c(cc1=O)CN(CCCS(N)(=O)=O)CC2	> 50.1	IC50 [5]: 31.6 µM and 50.9 µM
c1cnc(N2CCCC(NCc3ccc(-n4ccnc4)cc3)C2)nc1 (centres undefined)	> 50.1	–
CCc1cnc(N2CC[C@H]3[C@@H]2CCC(=O)N3CC2CCOCC2)nc1	–	IC50 [8]: > 100 µM
Cc1ccc(NC(=O)c2nc3c(s2)CCCN3C(=O)C2CC2)cn1	–	IC50 [8]: > 100 µM
Fc1ccc(C2(CNC3=NCCN3)CCCC2)cc1.I	> 50.1	pIC50 [9]: 6.191; IC50 ([9]; Plasmodium falciparum): 0.629 µM
